Data on 13 compounds can be found in patent publication US7378428B2, “Nitrogen-containing bicyclic compounds and drugs containing the same as the active ingredient” (Ono Pharmaceutical Co., Ltd., priority 2002, dated 2008).

T1 sequence (P34972 whole entry): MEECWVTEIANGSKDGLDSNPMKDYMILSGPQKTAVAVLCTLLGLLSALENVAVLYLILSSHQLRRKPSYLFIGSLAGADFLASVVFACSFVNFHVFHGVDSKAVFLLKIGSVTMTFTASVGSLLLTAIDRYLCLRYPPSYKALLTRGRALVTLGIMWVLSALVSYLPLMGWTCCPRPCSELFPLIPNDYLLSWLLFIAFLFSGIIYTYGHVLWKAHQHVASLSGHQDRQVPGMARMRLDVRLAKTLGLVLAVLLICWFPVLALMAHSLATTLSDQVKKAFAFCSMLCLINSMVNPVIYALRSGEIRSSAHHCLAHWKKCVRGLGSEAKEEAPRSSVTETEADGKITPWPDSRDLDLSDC
T2 sequence (Q13946 whole entry): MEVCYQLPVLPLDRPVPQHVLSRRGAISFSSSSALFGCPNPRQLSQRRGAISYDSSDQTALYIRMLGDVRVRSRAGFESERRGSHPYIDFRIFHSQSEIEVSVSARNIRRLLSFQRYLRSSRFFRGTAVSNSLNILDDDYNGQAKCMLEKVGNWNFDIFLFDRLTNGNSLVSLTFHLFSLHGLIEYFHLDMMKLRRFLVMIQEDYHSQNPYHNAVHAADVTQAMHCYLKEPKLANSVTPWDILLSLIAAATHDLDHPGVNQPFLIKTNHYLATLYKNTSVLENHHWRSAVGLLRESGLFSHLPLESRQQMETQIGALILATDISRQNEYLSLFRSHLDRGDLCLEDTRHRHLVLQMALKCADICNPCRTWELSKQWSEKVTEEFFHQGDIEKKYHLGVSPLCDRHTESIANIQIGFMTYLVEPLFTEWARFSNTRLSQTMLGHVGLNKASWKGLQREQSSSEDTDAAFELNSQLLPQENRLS

One assay concerns the target T1, Human CB2 receptors (Homo sapiens, UniProt P34972).
T1 construct: expressed in transfected cells; host or cells: CHO cells
Nature of the assay: In vitro signaling assay: inhibition of forskolin-induced cAMP production in human CB2 receptor expressing CHO cells. Format: cell-based. As to conditions: 10 μM forskolin, 15 minutes at room temperature. The method, then:
Human CB2 receptors expressed CHO cells were used for the assays. Cells were dispersed seeded in 96-well plates in a density of 5×10^4 cells/well, and were subjected to experiment the next day. After removing the culture media 1 mM isobutylmethylxanthine (IBMX) solution was added, and cells were incubated for 10 minutes at room temperature. Next, a mixture of 10 μM forskolin and the compound of the present invention was added. After additional incubation for 15 minutes at room temperature, the culture supernatant was discarded and 200 μl of lysis reagent (attached to a cAMP EIA) was added. The amounts of cAMP of the lysate were determined by a cAMP EIA kit (Amersham) under conditions of the forskolin-induced cAMP production. The compound of the present invention was dissolved in DMSO and the solution was diluted to adjust the final concentration of DMSO to 0.1%. IC50 values were calculated from the inhibitory ratio of the compound of the present invention toward the amount of the forskolin-induced cAMP production. By the same experiment using CHO cells, it was confirmed that this inhibitory effect toward cAMP production by the compound was mediated via the human CB2 receptors.
Background: Cyclic AMP is a second messenger, typically raised through Gs and lowered through Gi signalling.
For orientation: IC50 means the concentration needed to halve the response being measured. A high value points to lower potency. In the case of `CC1(C)Cc2cc(C#N)c(C#N)cc2/C(=C/C(=O)C2CCOCC2)N1` [46(3), (Z)-2-(6,7-dicyano-3,3-dimethyl-3,4-dihydro-(2H)-isoquinolin-1-ylidene)-1-(tetrahydropyran-4-yl)ethan-1-one], the midpoint of inhibition, the IC50, lay at 5.3 nM.

The compound `Cc1cc2c(cc1O)/C(=C/C(=O)C13CC4CC(CC(C4)C1)C3)NC(C)(C)C2` [47(4), (Z)-2-(7-hydroxy-3,3,6-trimethyl-3,4-dihydro-(2H)-isoquinolin-1-ylidene)-1-(adamantan-1-yl)ethan-1-one] registered an IC50 of 5.2 nM.

Consider `Cc1cc2c(cc1O)/C(=C/C(=O)C1CCCCCC1)NC(C)(C)C2` [47(6), (Z)-2-(7-hydroxy-3,3,6-trimethyl-3,4-dihydro-(2H)-isoquinolin-1-ylidene)-1-cycloheptylethan-1-one], for which it took 4.1 nM to reach half-maximal inhibition (IC50).

`COc1ccc2c(c1)C(C)(C)N/C2=C\C(=O)c1ccccc1OC` [57(2), (Z)-2-(5-methoxy-3,3-dimethyl-2,3-dihydro-(2H)-isoindol-1-ylidene)-1-(2-methoxyphenyl)ethan-1-one] registered a 50% inhibitory concentration (IC50) of 3.3 nM.

A further assay concerns the target T2, PDE7 (Homo sapiens, UniProt Q13946).
Assay: not given
As to conditions: J. Biol. Chem., 268, 12925 (1993); cited from earlier work.
In the case of `COc1ccc(C2CNC(=O)C2)cc1OC1CCCC1` (stereo not shown) [rolipram], the “inhibition of PDE7” value is listed as “not inhibited”.

For another assay, the target named is T2, PDE7. The experiment in a line: In vitro enzyme assay: PDE7 inhibitory activity. Format: biochemical. The arrangement: endogenous in cells; host or cells: HuT78 cells; soluble fraction separated on a MonoQ anion-exchange column. The settings on record: PDE7 fraction from HuT78 cells, 30 minutes at room temperature. The method, then: HuT78 cells (derived from human T cell lymphocyte) were cultured in PRMI1640 medium containing 10% bovine fetus serum. 2 L of cells (approximately 8×10^8 cells) were collected, and they were homogenized in a buffer [50 mmol/l tris hydrochloric acid buffer containing 1 mmol/l dithiothreitol (DTT), 2 mmol/l ethylenediamine tetraacetate disodium (EDTA-2Na). After centrifugation (50,000 rpm, 4° C., 1 hour), the supernatant was collected, and filtered over 0.22 μm filter and the filtrate was fractionated by column chromatography on MonoQ (Pharmacia, hard negative ion exchange column) using the filtrate as soluble portion. The PDE activity of the fraction eluted by the concentration gradient of NaCl of 0-0.8 mol/L was measured using 1 μmol/l of cAMP as a substrate. Fractions where PDE activity is not inhibited by 10 μmol/l of rolipram ([…]) are collected. As to the PDE activity of these fractions, substrate-specificity against cAMP and Michaelis-Menten constant were measured and sensitivity to rolipram was confirmed. Then the fractions which show specificity and high affinity to cAMP which are non-sensitive fractions to rolipram were identified as PDE7. The fractions were used as an enzyme liquor for the measurement of PDE inhibitory activity.
PDE7 inhibitory activity of the compound of the present invention of was evaluated by the following method. 70 μl of diluted enzyme solution, 10 μl of the solution of the compound of the present invention (10% in DMSO), 10 μl of reaction buffer solution [50 mmol/l MgCl2, 1 mg/ml bovine serum albumin, 200 mmol/l tris hydrochloric acid buffer (pH 8.0) containing 40 mmol/l 2-mercaptoethanol] in 96 well plate and it was incubated for 30 minutes at room temperature. It was microwaved for 2.5 minutes to terminate the reaction. It was centrifuged (2,000 rpm for 1 minute) and thereto was added 10 μl of 1 mg/ml snake venom (Sigma, cat. V7000) and it was incubated for 30 minutes at room temperature. The […] (50 μl) was applied to alumina column (100 μl). Purified ^3H-adenosine was eluted with 0.005N hydrochloric acid (80 μl) and its radioactivity of the elute was measured.
PDE7 inhibitory activity of the present invention was evaluated by the activity inhibitory percentage calculated from the following equation. Activity inhibitory percentage (%)=(1-radioactivity in the presence of the compound of the present invention/radioactivity in the absence of the compound of the present invention)×100
Consider `COc1ccc2c(c1)/C(=C/C(=O)c1ccc(C#N)cc1)NC(C)(C)C2` [11(35), (Z)-2-(7-methoxy-3,3-dimethyl-3,4-dihydro-(2H)-isoquinolin-1-ylidene)-1-(4-cyanophenyl)ethan-1-one], for which the IC50 turned out to be 150 nM.

Turning to `COc1ccccc1C(=O)/C=C1\NC(C)(C)Cc2ccc(Cl)cc21` [11(43), (Z)-2-(7-chloro-3,3-dimethyl-3,4-dihydro-(2H)-isoquinolin-1-ylidene)-1-(2-methoxyphenyl)ethan-1-one], the IC50 came out at 970 nM.

Consider `CC1(C)Cc2ccc(Cl)cc2/C(=C/C(=O)C23CC4CC(CC(C4)C2)C3)N1` [11(79), (Z)-2-(7-chloro-3,3-dimethyl-3,4-dihydro-(2H)-isoquinolin-1-ylidene)-1-(adamantan-1-yl)ethan-1-one], for which the IC50 worked out at 760 nM.

`CNc1ccc2c(c1)/C(=C/C(=O)c1ccc(C#N)cc1)NC(C)(C)C2` [11(162), (Z)-2-(7-methylamino-3,3-dimethyl-3,4-dihydro-(2H)-isoquinolin-1-ylidene)-1-(4-cyanophenyl)ethan-1-one]: it took 370 nM to reach half-maximal inhibition (IC50).

The compound `COc1ccc2c(c1)CC(C)(C)N/C2=C\C(=O)C1CCCCC1` [12(7), (Z)-2-(6-methoxy-3,3-dimethyl-3,4-dihydro-(2H)-isoquinolin-1-ylidene)-1-cyclohexylethan-1-one] yielded a half-maximal inhibitory concentration (IC50) of 270 nM.

`COc1ccccc1C(=O)/C=C1\NC(C)(C)Cc2cc(Cl)ccc21` [12(15), (Z)-2-(6-chloro-3,3-dimethyl-3,4-dihydro-(2H)-isoquinolin-1-ylidene)-1-(2-methoxyphenyl)ethan-1-one] returned an IC50 of 1100 nM.

`COc1ccc2c(c1)/C(=C/C(=O)c1ccc(N)cc1)NC2(C)C` [Example 58, (Z)-2-(6-methoxy-3,3-dimethyl-2,3-dihydro-(2H)-isoindol-1-ylidene)-1-(4-aminophenyl)ethan-1-one]: half-maximal inhibition (IC50) was put at 23 nM.

In turn, `COc1ccc2c(c1)/C(=C/C(=O)c1ccc(NC(N)=O)cc1)NC(C)(C)C2` [Example 73, (Z)-2-(7-methoxy-3,3-dimethyl-3,4-dihydro-(2H)-isoquinolin-1-ylidene)-1-(4-((aminocarbonyl)amino)phenyl)ethan-1-one] showed a half-inhibitory concentration (IC50) of 27 nM.
